Data as given in paper PMC10254193, “Early Molecular Insights into Thanatin Analogues Binding to A. baumannii LptA” (Molecules, 2023).
≈ marks a conversion by molar mass, not a printed value. Bridge positions count the residues as written; N and C are the ends. Square brackets hold non-standard residues; d marks the D form. Peptide text beside a SMILES is read from it. Hyp = O=C(O)[C@@H]1C[C@@H](O)CN1; Pen = CC(C)(S)[C@H](N)C(=O)O; dDab = NCC[C@@H](N)C(=O)O; Nle = CCCC[C@H](N)C(=O)O; Dab = NCC[C@H](N)C(=O)O

T1: A. baumannii LptAm2.0 (LptAm(Ab)2.0) (A. baumannii ATCC 17978, UniProt V5VEZ9 33-159)
T1 construct: LptA of A. baumannii ATCC 17978, L33 to G159: as LptAm(Ab)1.0 with a further 5-residue truncation at the C-terminus; source: E. coli BL21(DE3), purified (two-step NiNTA with TEV cleavage); not shown: GB1 (protein G B1 domain), N-terminal, cleaved; His tag, N-terminal, cleaved
T1 sequence: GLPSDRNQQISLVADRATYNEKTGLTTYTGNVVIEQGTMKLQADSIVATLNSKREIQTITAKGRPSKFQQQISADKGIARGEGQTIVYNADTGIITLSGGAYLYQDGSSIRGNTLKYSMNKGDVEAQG

B1: Thanatin (peptide)
peptide: GSKKPVPIIYCNRRTGKCQRM
notes: thanatin, the naturally occurring 21-mer; positions 1′-21′; also called native thanatin
B2: A. baumannii LptAm2.0 (LptAm(Ab)2.0) (domain or fragment)
chain: T1 sequence

Tests used:
[1] = molecular target: LptAm(Ab)2.0; test: Fluorescence polarization direct binding assay; parameters: species or system A. baumannii; conditions: direct FP, than-FL 5 µM, LptAm(Ab)2.0 serial dilution, FP buffer 50 mM NaPi pH 7, 150 mM NaCl, 0.05% Tween20, overnight 4 °C, read at 25 °C, triplicate; read-out: KD ± 95CI
Excerpt: As previously mentioned, a second A. baumannii LptA protein construct (LptAm(Ab)2.0), truncated at G159 of the C-terminus had improved monomeric behavior in solution and was used for binding affinity assays. The protein underwent routine checks for purity via a Coomassie-stained SDS-PAGE (Figure S1), and its binding to 7 in a titration series was observed using analytical SEC (Figure 2B), before proceeding with fluorescence polarization (FP). The fluorescent label, Alexa647, was conjugated to thanatin at the first position, as described in [24]. […]
Protein stocks were purified and concentrated in SEC buffer (50 mM NaPi pH 7, 150 mM NaCl), and if necessary diluted to the desired concentration using FP buffer (50 mM NaPi pH 7, 150 mM NaCl, 0.05% Tween20). […] Plates were left to incubate overnight at 4 °C before fluorescence polarization (FP) measurements. Anisotropy was measured using the Tecan Safire^2 plate reader using a 10 nm bandwidth and setting the excitation and emission wavelengths to 635 nm and 670 nm, respectively. The G-factor (G) was also determined empirically as 1.094 for the instrument and included in all the anisotropy calculations.
For direct binding assays, fluorescence anisotropy (r) was calculated using the parallel and perpendicular polarized intensities using the equation r=I∥−I⊥∗G/I∥+2I⊥∗G . […]

[2] = tested on: E. coli ATCC 25922; type: cell-based
Excerpt: Table 1 LptA sequence identity to E. coli and MIC values (µg/mL). | column: E. coli ATCC 25922

[3] = tested on: K. pneumoniae ATCC 43816; type: cell-based
Excerpt: Table 1 LptA sequence identity to E. coli and MIC values (µg/mL). | column: K. pneumoniae ATCC 43816

[4] = tested on: P. aeruginosa ATCC 27853; type: cell-based
Excerpt: Table 1 LptA sequence identity to E. coli and MIC values (µg/mL). | column: P. aeruginosa ATCC 27853

[5] = tested on: A. baumannii DSM 30008; type: cell-based
Excerpt: Table 1 LptA sequence identity to E. coli and MIC values (µg/mL). | column: A. baumannii DSM 30008

[6] = molecular target: LptAm(Ab)2.0; test: Fluorescence polarization competition (indirect) binding assay, displacement of than-FL; parameters: species or system A. baumannii; conditions: competition FP, than-FL 10 µM, triplicate; for IC50: 1:1 LptAm(Ab)2.0 and than-FL, FP buffer pH 7, overnight 4 °C, read at 25 °C, read-out: IC50 ± 95CI; for Ki: from IC50 and KD of than-FL by Cheng–Prusoff equation, read-out: KI ± 95CI
Method: The dissociation constant (KD) of than-FL was first determined in a direct binding assay and measured as 3.7 ± 0.5 µM (Figure 5, left) (Table 3). Subsequently, competitive binding assays were performed to determine the inhibition constants (KIs) of the unlabeled thanatin derivatives 1, 2, 5, 6, and 7. For each thanatin derivative tested, a serial dilution was prepared in triplicate on a single 96-well plate, to which a 1:1 mixture of LptAm(Ab)2.0 and than-FL was added. […] Determination of the KIs was achieved from the empirically derived IC50 values and KD of than-FL using the Cheng–Prusoff equation [27].
Protein stocks were purified and concentrated in SEC buffer (50 mM NaPi pH 7, 150 mM NaCl), and if necessary diluted to the desired concentration using FP buffer (50 mM NaPi pH 7, 150 mM NaCl, 0.05% Tween20). Peptide stocks and fluorescently labeled peptide stocks were made in FP buffer. A 1:1 serial dilution of 24 wells was prepared first by adding 100 µL of the unlabeled protein (e.g., LptAm(Ab)2.0) or peptide (e.g., 1, 2, 5–7), starting at high concentrations, 100–500 µM, in well one. Then, 50 µL was taken from the first well and added to 50 µL of FP buffer in the subsequent well, homogenized and repeated for the remaining of the 24-well series. Then, 50 µL of 2x stock of the fluorescently labeled thanatin (than-FL) was added to the dilution series. For the direct binding assays, 10 µM than-FL was used as the 2x stock, and for the indirect binding assays, a 1:1 mixture of 20 µM Lpt protein variant and 20 µM than-FL was used as the 2x stock; the final working concentrations of the than-FL were 5 µM and 10 µM, respectively. Plates were left to incubate overnight at 4 °C before fluorescence polarization (FP) measurements. Anisotropy was measured using the Tecan Safire^2 plate reader using a 10 nm bandwidth and setting the excitation and emission wavelengths to 635 nm and 670 nm, respectively. The G-factor (G) was also determined empirically as 1.094 for the instrument and included in all the anisotropy calculations.
For the indirect binding assays, r was calculated in the same manner as the direct binding assays. To control for non-specific binding between than-FL and competitors, than-FL alone was added to a replicate dilution series of the unlabeled peptide on the same plate. The control was subtracted from r to yield r’. Data were fit to a sigmoidal interpolation model on GraphPad Prism 9, and an IC50 was generated for each unlabeled peptide or protein measured. The inhibition constants (Kis) were calculated using the Cheng–Prusoff equation, Ki=IC50×1+LT/KD^−1 , in which the total concentration of than-FL (LT) was used as well as the KD previously derived from the peptide’s cognate direct binding assay.

[7] = molecular target: T1, A. baumannii LptAm2.0 (LptAm(Ab)2.0); test: fluorescence polarisation; competition: unlabeled peptide serially diluted, 1:1 mixture of LptAm(Ab)2.0 and than-FL added (than-FL 10 µM final); 50 mM NaPi pH 7, 150 mM NaCl, 0.05% Tween20; KI from IC50 by the Cheng-Prusoff equation; conditions: both partners purified
[8] = molecular target: than-FL (fluorescently labeled thanatin, Alexa647); test: fluorescence polarisation; direct binding: LptAm(Ab)2.0 serially diluted, than-FL 5 µM; 50 mM NaPi pH 7, 150 mM NaCl, 0.05% Tween20; incubated overnight at 4 °C, executed at ambient temperature (25 °C); One site - Total fit

| Molecule | Kd [1] | MIC [2] | MIC [3] | MIC [4] | MIC [5] | IC50 [6] | Ki [6] | IC50 [7] | Ki [7] | Kd [8] |
| --- | --- | --- | --- | --- | --- | --- | --- | --- | --- | --- |
| Than-FL: fluorescently labeled thanatin, Alexa647 conjugated at the first position; reporter in all FP assays | 3.7 ± 0.5 µM |  |  |  |  |  |  |  |  |  |
| CC[C@H](C)[C@H](NC(=O)[C@@H](NC(=O)[C@@H]1CCCN1C(=O)[C@@H](NC(=O)[C@@H]1CCCN1C(=O)[C@H](CCCCN)NC(=O)[C@@H](N)CCCCN)C(C)C)[C@@H](C)CC)C(=O)N[C@@H](Cc1ccc(O)cc1)C(=O)N[C@@H]1C(=O)N[C@@H](CC(N)=O)C(=O)N[C@@H](CCCNC(=N)N)C(=O)N[C@@H](CCN)C(=O)N[C@@H]([C@@H](C)O)C(=O)N[C@H](CCN)C(=O)N[C@@H](CCCCN)C(=O)N[C@H](C(=O)N[C@@H](CCN)C(=O)N[C@@H](CCCNC(=N)N)C(=O)N[C@@H](Cc2ccc(O)cc2)C(=O)O)CSSC1(C)C [Peptide 2] (H-KKPVPIIY[Pen]NR[Dab]T[dDab]KC[Dab]RY-OH; disulfide 9-16; N-terminus and C-terminus assumed) |  | 0.031 µg/mL (≈ 0.0134 µM) | 0.125 µg/mL (≈ 0.0541 µM) | >32 µg/mL | >32 µg/mL | 24.1 ± 6.3 µM | 6.5 ± 1.7 µM |  |  |  |
| CC[C@H](C)[C@H](NC(=O)[C@@H]1C[C@@H](O)CN1C(=O)[C@@H](N)C(C)C)C(=O)N[C@H](C(=O)N[C@@H](Cc1ccc(O)cc1)C(=O)N[C@@H]1C(=O)N[C@@H](CC(N)=O)C(=O)N[C@@H](CCCNC(=N)N)C(=O)N[C@@H](CCN)C(=O)N[C@@H]([C@@H](C)O)C(=O)N[C@H](CCN)C(=O)N[C@@H](CCCCN)C(=O)N[C@H](C(=O)N[C@@H](CCN)C(=O)N[C@@H](CCCNC(=N)N)C(=O)N[C@@H](Cc2ccc(O)cc2)C(=O)O)CSSC1(C)C)[C@@H](C)O [Peptide 6] (H-V[Hyp]ITY[Pen]NR[Dab]T[dDab]KC[Dab]RY-OH; disulfide 6-13; N-terminus and C-terminus assumed) |  | 0.125 µg/mL (≈ 0.0638 µM) | 0.250 µg/mL (≈ 0.128 µM) | >32 µg/mL | >32 µg/mL | 15.4 ± 1.3 µM | 4.1 ± 0.4 µM |  |  |  |
| CCCC[C@H](NC(=O)[C@H](CCCNC(=N)N)NC(=O)[C@H](CCN)NC(=O)[C@@H]1CSSC[C@H](NC(=O)[C@H](Cc2ccc(O)cc2)NC(=O)[C@@H](NC(=O)[C@@H](NC(=O)[C@@H]2CCCN2C(=O)[C@@H](NC(=O)[C@@H]2CCCN2C(=O)[C@H](CCCCN)NC(=O)[C@@H](N)CCCCN)C(C)C)[C@@H](C)CC)[C@@H](C)CC)C(=O)N[C@@H](CC(N)=O)C(=O)N[C@@H](CCCNC(=N)N)C(=O)N[C@@H](CCCNC(=N)N)C(=O)N[C@@H]([C@@H](C)O)C(=O)NCC(=O)N[C@@H](CCCCN)C(=O)N1)C(=O)O [Peptide 1] (H-KKPVPIIYCNRRTGKC[Dab]R[Nle]-OH; disulfide 9-16) |  | 0.063 µg/mL (≈ 0.0281 µM) | 0.250 µg/mL (≈ 0.111 µM) | >64 µg/mL | >32 µg/mL |  |  |  |  |  |
| CC[C@H](C)[C@H](NC(=O)[C@@H](NC(=O)[C@@H]1C[C@@H](O)CN1C(=O)[C@@H](N)C(C)C)[C@@H](C)CC)C(=O)N[C@@H](Cc1ccc(O)cc1)C(=O)N[C@@H]1C(=O)N[C@@H](CC(N)=O)C(=O)N[C@@H](CCCNC(=N)N)C(=O)N[C@@H](CCN)C(=O)N[C@@H]([C@@H](C)O)C(=O)N[C@H](CCN)C(=O)N[C@@H](CCCCN)C(=O)N[C@H](C(=O)N[C@@H](CCN)C(=O)N[C@@H](CCN)C(=O)N[C@@H](Cc2ccc(O)cc2)C(=O)O)CSSC1(C)C [Peptide 5] (H-V[Hyp]IIY[Pen]NR[Dab]T[dDab]KC[Dab][Dab]Y-OH; disulfide 6-13; N-terminus and C-terminus assumed) |  | 0.063 µg/mL (≈ 0.0329 µM) | 0.250 µg/mL (≈ 0.131 µM) | >32 µg/mL | >32 µg/mL | 11.5 ± 0.7 µM | 3.1 ± 0.2 µM |  |  |  |
| B1 |  |  |  |  |  |  |  | 11.8 µM | 3.2 µM |  |
| B2 |  |  |  |  |  |  |  |  |  | 3.7 µM |
